Measured values reported in patent publication US5789182A, “System for assaying binding to a heparin-binding growth factor receptor” (The Children's Medical Center Corporation, priority 1993, dated 1998).

Tests used:
[1] = tested on: endothelial cell migration; settings: cited from earlier work
angiogenesis = settings: associated with embryogenesis and inflammation; cited from earlier work
mouse FGF receptor (mFR) = assay: High-affinity receptor binding of 125I-bFGF to CHO cells transfected with mFR; settings: for high-affinity binding of bFGF: no heparin
From the text: The following cell lines were used: Balb/c fibroblasts; NIH 3T3 cells; CHO K1 cells (parental wild-type CHO cells, available as ATCC Accession No. CCL 61); clones 803 and 677, each of which is a clone of glucuronosyltransferase-deficient CHO K1 cells which lack cell-surface HSPG (in addition, 677 cells overexpress the closely related GAG, chondroitin sulfate); and clone 606, HS-N-sulfotransferase-deficient CHO K1-derived cells which express normal levels of (but undersulfated) cell surface HSPG. The mutant clones 803, 677, and 606 were obtained from Dr. Jeffrey D. Esko. Wild-type and mutant CHO cells were routinely grown in Hams F12 medium supplemented with 10% bovine fetal calf serum and L-glutamine (Sigma). For transfection of the murine FGF receptor, approximately 4×10^7 cells were trypsinized, washed in ice cold PBS, and incubated with 50 μg Mo/mFR/SV and 8 μg of CMV B-gal (source; used as a control for transfection efficiency) for 10 min at 4° C. Electroporation was done in a Bio-Rad Gene Pulser at 960 uF and 300V. Cells were then plated in 3 cm, 6-well plates, medium was replaced after 24 hours, and b-gal and binding assays were performed 36 to 48 hours after electroporation. Routinely, 30 to 40% of the cells stained positive for b-gal.
(§1) Subconfluent cultures of about 2×10^5 cells in a 30 mm dish (Costar) were precooled to 4° C., washed twice with cold Dulbecco's modified Eagle's medium supplemented with 25 mM HEPES pH 7.5 and 1% bovine serum albumin (DMEM/BSA), and incubated for 2 hours at 4° C. with ^125 I-bFGF (50 μCi/ mmole) in DMEM/BSA at different concentrations and in the presence or absence of heparin, as determined by the experimental protocol. The binding medium was then discarded and the cells washed twice with ice cold PBS and twice with DMEM/BSA. To determine the amount of low-affinity-bound bFGF, the cells were incubated twice for 5 minutes with cold PBS, pH 7.5, containing 1.6M NaCl (low-affinity-bound bFGF could be totally removed using salt concentrations of 0.8M and higher--data not shown), and the radioactivity of the salt extraction solution assayed in a gamma counter. High-affinity-bound bFGF was determined by a 2M NaCl (pH 4.0) extraction (Moscatelli, J. Cell Biol. 107:753-759, 1988). Nonspecific binding was determined by including a 100-fold excess of unlabeled bFGF. After binding in the presence or absence of heparin, bFGF-receptor crosslinking with disuccinimidyl suberate (DSS) was performed as described (Yayon and Klagsbrun, Proc. Natl. Acad. Sci. USA 87:5346-5350, 1990). Briefly, cells were washed twice with PBS and then incubated with 0.15 mM DSS in PBS for 15 minutes at room temperature. The cells were then washed with a solution of 50 mM Tris, pH 7.4, and 100 mM glycine; and scraped and lysed in a small volume of lysis buffer containing 150 mM NaCl, 20 mM Tris pH 8.0, 1mM MgCl2, 0.1 mM ZnCl2, 0.5% NP-40 (Sigma), 1 μg aprotinin (Sigma), 1 μg/ml leupeptin (Sigma), and 2 mM PMSF (phenylmethylsulfonyl fluoride; Sigma). The cell lysate, cleared by spinning down nuclei and cell debris, was boiled and then electrophoresed under reducing conditions on a 7% SDS polyacrylamide gel. After drying the gel, an autoradiogram was prepared using Kodak X-Omat AR film (Eastman Kodak Co., Rochester, N.Y.).

[2] = tested on: cell surface heparin sulfate proteoglycans (low-affinity binding sites); assay: Low-affinity binding of 125I-bFGF to cells (1.6M NaCl extraction)
Method: as §1

[3] = tested on: high-affinity FGF receptors; assay: High-affinity binding of 125I-bFGF to untransfected CHO cells; settings: untransfected wild-type and mutant CHO cells, compared to NIH-3T3 cells
Method: as §1, with “The cells were then washed with a solution of 50 mM Tris, pH 7.4, and 100 mM glycine; and scraped and lysed in a small volume of lysis buffer containing 150 mM NaCl, 20 mM Tris pH 8.0, 1mM MgCl2, 0.1 mM ZnCl2, 0.5% NP-40 (Sigma), 1 μg aprotinin (Sigma), 1 μg/ml leupeptin (Sigma), and 2 mM PMSF (phenylmethylsulfonyl fluoride; Sigma). The cell lysate, cleared by spinning down nuclei and cell debris, was boiled and then electrophoresed under reducing conditions on a 7% SDS polyacrylamide gel. After drying the gel, an autoradiogram was prepared using Kodak X-Omat AR film (Eastman Kodak Co., Rochester, N.Y.).” left out

mouse FGF receptor = assay: Chemical crosslinking of 125I-bFGF to mFR-transfected CHO cells (DSS); settings: HS-deficient cells; unless heparin was included in the binding medium
Method: as §1, with “The cells were then washed with a solution of 50 mM Tris, pH 7.4, and 100 mM glycine; and scraped and lysed in a small volume of lysis buffer containing 150 mM NaCl, 20 mM Tris pH 8.0, 1mM MgCl2, 0.1 mM ZnCl2, 0.5% NP-40 (Sigma), 1 μg aprotinin (Sigma), 1 μg/ml leupeptin (Sigma), and 2 mM PMSF (phenylmethylsulfonyl fluoride; Sigma). The cell lysate, cleared by spinning down nuclei and cell debris, was boiled and then electrophoresed under reducing conditions on a 7% SDS polyacrylamide gel. After drying the gel, an autoradiogram was prepared using Kodak X-Omat AR film (Eastman Kodak Co., Rochester, N.Y.).” left out

[4] = tested on: FRAP (mouse bFGF receptor/alkaline phosphatase fusion); assay: Cell-free assay: 125I-bFGF binding to FRAP fusion protein, immunoprecipitated with AP-specific antibody
Method: Conditioned medium from FRAP-A2 was assayed for its ability to bind ^125 I-bFGF by combining in the presence or in the absence of a standard amount of heparin, an aliquot of conditioned medium with a standard amount of ^125 I-bFGF and a standard amount of monoclonal antibody specific for placental alkaline phosphatase (Medix Biotech, Foster City, Calif.) coupled to CNBr-activated sepharose beads (Pharmacia, Piscataway, N.J.). The mixture was incubated for 90 min at 4° C. and centrifuged to pellet the beads, which were then washed two times with 0.5 ml PBS and re-pelleted before determining the amount of bound ^125 I in a gamma counter. […] In the experiment illustrated in FIG. 13, varying amounts of FRAP-A2-conditioned medium were combined with heparin and ^125 I-bFGF, while in FIG. 14 the variable was the concentration of heparin in the assay mix.

[5] = tested on: serum-starved Balb/c fibroblasts; assay: Biological activity of iodinated bFGF; format: cell-based; settings: ability to stimulate serum-starved Balb/c fibroblasts
From the text: Recombinant human bFGF was labeled with ^125 I (17 Ci/mg) (New England Nuclear, Boston, MA) using Iodo-beads (Pierce Chemical Co., Rockford, IL) according to the manufacturer's instructions. […] When subjected to SDS-PAGE, ^125 I-bFGF migrated as a single band in the same position as unlabeled bFGF.

[6] = Degradation of bFGF in binding medium (gel electrophoresis, biological activity assay); format: physicochemical; settings: aliquots at end of each experiment, with or without heparin
From the text: The heparin-dependent high-affinityreceptor binding was similar to that reported for non-heparin-dependent binding of bFGF to cells which naturally express both HSPG and high-affinity receptors for bFGF (Neufeld et al., J. Biol. Chem. 261:5631-5637, 1985).

Substance: Protamine
- effect on heparin-stimulated endothelial cell migration [1]: inhibits the ability of heparin to stimulate endothelial cell migration
- effect on angiogenesis (angiogenesis): inhibits angiogenesis

Substance: ^125 I-bFGF: recombinant human bFGF labeled with 125I using Iodo-beads [reference compound]
- 125I-bFGF bound relative to untransfected cells (mouse FGF receptor (mFR); wild-type CHO cells transiently transfected with mFR): 8-10 fold

Substance: bFGF: recombinant human basic fibroblast growth factor, gift from Takeda Inc.
- reduction of low-affinity binding of bFGF compared to wild-type CHO cells ([2]; CHO clone 606 (undersulfated HSPG)): more than 50%
- low-affinity binding of bFGF ([2]; clone 677 cells (undetectable HSPG, overexpress chondroitin sulfate)): Absence of low-affinity bFGF binding
- low-affinity binding of bFGF ([2]; clone 803 cells (5%-10% of wild-type HSPG)): did not bind significant amounts
- low-affinity binding of bFGF ([2]; wild-type CHO K1 cells): comparable to that found for NIH-3T3 cells
- high-affinity binding of bFGF [3]: very little high-affinity binding
- character of bFGF-receptor binding (mouse FGF receptor (mFR); HS-deficient cells, 40 ng/ml heparin): specific, saturable, single class of high-affinity binding sites
- competition of heparin-dependent high-affinity receptor binding of 125I-bFGF (mouse FGF receptor (mFR); excess of unlabeled bFGF): specifically competed out
- high-affinity binding of bFGF (mouse FGF receptor (mFR); mFR-transfected HS-deficient mutants): none of the similarly transfected HS-deficient mutants showed significant high-affinity binding
- high-affinity binding of bFGF (mouse FGF receptor (mFR); wild-type CHO K1 cells transfected with Mo/mFR/SV): high levels of high-affinity binding
- crosslinking of bFGF to high-affinity receptors (mouse FGF receptor): could not be crosslinked
- bound 125I with increasing concentrations of unlabelled FGF ([4]; competition assay (FIG. 12)): decrease
- binding of labelled bFGF to fusion protein ([4]; presence vs absence of heparin or a heparin-like molecule): in the presence but not in the absence
- biological activity after iodination [5]: Full biological activity
- degradation of bFGF in binding medium [6]: no signs of degradation
